Test results taken from patent US12139474B2, “LPA receptor antagonists and uses thereof” (Gilead Sciences, Inc., priority 2020, dated 2024).

Biological target: T1, human LPAR1 (Homo sapiens, UniProt Q92633)
T1 construct: host or cells: CHO-K1
Assay: LPAR1 intracellular calcium mobilization assay (antagonist mode)
Format: cell-based
Details: CHO-K1 EDG2 cells expressing human LPAR1; 60 min pre-incubation with compound, then LPA 18:2 at EC80 (100 nM); FLIPR calcium signal
Protocol: In vitro LPAR1 activity was measured in an intracellular calcium mobilization assay.
CHO-K1 EDG2 cells (DiscoverX cat #93-0644C2) expressing human LPAR1 (NM_001401.3) were seeded in a total volume of 25 μL of Dulbecco's Modification of Eagle's Medium (DMEM) with 10% Fetal Bovine Serum, 1× PenStrepGlutamine, 300 ug/ml Hygromycin, and 800 ug/ml G418 into 384-well tissue culture plate (Grenier #781091) at 15,000 cells/well and incubated at 37° C. overnight. Prior to testing, 25 μL Calcium Loading Dye Component A (FLIPR Calcium 6 Assay Kit Molecular Device #R8190) and 2.5 mM Probenecid (Invitrogen #P36400, prepared fresh) in Hank's Balanced Salt Solution (Corning #21-023-CV), 20 mM HEPES (Corning #25-060-CI), 0.1% Bovine Serum Albumin (Sigma-Aldrich #A7906-500G) was add to the cells for 60 minutes at 37° C.
Agonist dose curves of LPA 18:2 (Avanti Polar Lipids cat #857138, 0.5 nM to 10 μM) were recorded to determine the LPA 18:2 EC80 for subsequent antagonist assays. For agonist dose curves, cells were removed from the incubator 2 hours after dye loading and transferred to the FLIPR Tetra instrument (Molecular Devices, San Jose, CA). Calcium mobilization was monitored for 5 min and 10 μL 6× LPA in HBSS/20 mM Hepes/0.1% bovine serum albumin (BSA) was added to the cells 5 seconds into the assay.
To determine the LPAR1 antagonist activity of test compounds, cells were pre-incubated with test compound at a dose range of 0.5 nM to 10 μM, followed by LPA at EC80 concentration (100 nM). After dye loading, cells were removed from the incubator and 0.3 μL of 200× antagonist was added. Cells were incubated for 60 minutes at 37° C. Antagonist activity was measured on a FLIPR Tetra. Calcium mobilization was monitored for 3.5 minutes and 10 μL 6× EC80 LPA in HBSS, 20 mM HEPES, and 0.1% BSA was added to the cells 5 seconds into the assay. Signal amplitude (Maximum minus minimum) values were plotted against log10 of antagonist concentration using Dose Response Tool (Gilead Sciences Inc.) to determine EC50.
To assess the antagonistic potential of exemplified compounds EC50 values were determined for Compounds 1 to 32 in the LPAR1 calcium mobilization assay. The compound numbers correspond to the compound numbers in Examples 1 to 33.

T1 sequence (Q92633 whole entry): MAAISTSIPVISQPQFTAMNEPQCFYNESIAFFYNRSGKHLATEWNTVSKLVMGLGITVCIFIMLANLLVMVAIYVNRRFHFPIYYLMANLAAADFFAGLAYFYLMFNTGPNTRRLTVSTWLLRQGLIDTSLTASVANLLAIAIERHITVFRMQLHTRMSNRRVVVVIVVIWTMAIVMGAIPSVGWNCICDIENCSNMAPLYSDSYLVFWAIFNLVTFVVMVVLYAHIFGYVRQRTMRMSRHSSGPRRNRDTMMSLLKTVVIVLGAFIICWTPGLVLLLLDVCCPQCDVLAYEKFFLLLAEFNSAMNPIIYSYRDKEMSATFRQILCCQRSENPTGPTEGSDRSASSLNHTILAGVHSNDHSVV

| EC50 [nM] | Structure (SMILES) |
| --- | --- |
| 85 | C[C@@H](OC(=O)Nc1c(-c2ccc3c(n2)OCC(=O)N3)nnn1C)c1cc(F)cnc1Cl [Compound 1, (R)-1-(2-chloro-5-fluoropyridin-3-yl)ethyl (1-methyl-4-(2-oxo-2,3-dihydro-1H-pyrido[2,3-b][1,4]oxazin-6-yl)-1H-1,2,3-triazol-5-yl)carbamate] |
| 1980 | CC(OC(=O)Nc1c(-c2ccc3c(n2)OCC(=O)N3)nnn1C)c1cc(F)ncc1F (centres unmarked) [Compound 2, 1-(2,5-difluoropyridin-4-yl)ethyl(1-methyl-4-(2-oxo-2,3-dihydro-1H-pyrido[2,3-b][1,4]-oxazin-6-yl)-1H-1,2,3-triazol-5-yl)carbamate] |
| 66 | C[C@@H](OC(=O)Nc1c(-c2ccc3c(n2)OCC(=O)N3)nnn1C)c1cc(F)cnc1F [Compound 3, (R)-1-(2,5-difluoropyridin-3-yl)ethyl(1-methyl-4-(2-oxo-2,3-dihydro-1H-pyrido-[2,3-b][1,4]oxazin-6-yl)-1H-1,2,3-triazol-5-yl)carbamate] |
| 118 | C[C@@H](OC(=O)Nc1c(-c2ccc3c(n2)OCC(=O)N3)nnn1C)c1cc(Cl)cnc1F [Compound 4, (R)-1-(5-chloro-2-fluoropyridin-3-yl)-ethyl(1-methyl-4-(2-oxo-2,3-dihydro-1H-pyrido[2,3-b][1,4]-oxazin-6-yl)-1H-1,2,3-triazol-5-yl)-carbamate] |
| 100 | Cn1nnc(-c2ccc3c(n2)OCC(=O)N3)c1NC(=O)O[C@H](CF)c1ccccc1 [Compound 5, (S)-2-fluoro-1-phenylethyl (1-methyl-4-(2-oxo-2,3-dihydro-1H-pyrido[2,3-b][1,4]-oxazin-6-yl)-1H-1,2,3-triazol-5-yl)-carbamate] |
| 115 | C[C@@H](OC(=O)Nc1c(-c2cc3c(cc2F)NC(=O)CC3)nnn1C)c1cccnc1Cl [Compound 6, [(1R)-1-(2-chloro-3-pyridyl)ethyl] N-[5-(7-fluoro-2-oxo-3,4-dihydro-1H-quinolin-6-yl)-3-methyl-triazol-4-yl]carbamate] |
| 1230 | C[C@@H](OC(=O)Nc1c(-c2ccc3c(c2F)CCC(=O)N3)nnn1C)c1cccnc1Cl [Compound 7, (R)-1-(2-chloropyridin-3-yl)ethyl (4-(5-fluoro-2-oxo-1,2,3,4-tetrahydroquinolin-6-yl)-1-methyl-1H-1,2,3-triazol-5-yl)carbamate] |
| 765 | C[C@@H](OC(=O)Nc1c(-c2cnc3c(c2)OCC(=O)N3)nnn1C)c1cccnc1Cl [Compound 8, (R)-1-(2-chloropyridin-3-yl)ethyl (1-methyl-4-(3-oxo-3,4-dihydro-2H-pyrido[3,2-b][1,4]oxazin-7-yl)-1H-1,2,3-triazol-5-yl)carbamate] |
| 4610 | C[C@@H](OC(=O)Nc1c(-c2ccc3c(c2)C(C)(C)OC(=O)N3)nnn1C)c1cccnc1F [Compound 9, (R)-1-(2-fluoropyridin-3-yl)ethyl (4-(4,4-dimethyl-2-oxo-1,4-dihydro-2H-benzo[d][1,3]oxazin-6-yl)-1-methyl-1H-1,2,3-triazol-5-yl)carbamate] |
| 46 | C[C@@H](OC(=O)Nc1c(-c2ccc3c(c2)CCC(=O)N3)nnn1C)c1ccccc1Cl [Compound 11, (R)-1-(2-chlorophenyl)ethyl (1-methyl-4-(2-oxo-1,2,3,4-tetrahydroquinolin-6-yl)-1H-1,2,3-triazol-5-yl)carbamate] |
| 218 | C[C@@H](OC(=O)Nc1c(-c2ccc3c(c2)COC(=O)N3)nnn1C)c1ccccc1Cl [Compound 12, (R)-1-(2-chlorophenyl)ethyl(1-methyl-4-(2-oxo-1,4-dihydro-2H-benzo[d][1,3]-oxazin-6-yl)-1H-1,2,3-triazol-5-yl)-carbamate] |
| 38 | C[C@@H](OC(=O)Nc1c(-c2ccc3c(c2)OCC(=O)N3)nnn1C)c1ccccc1Cl [Compound 13, (R)-1-(2-chlorophenyl)ethyl(1-methyl-4-(3-oxo-3,4-dihydro-2H-benzo[b][1,4]-oxazin-7-yl)-1H-1,2,3-triazol-5-yl)-carbamate] |
| 4160 | C[C@@H](OC(=O)Nc1c(-c2ccc3c(c2)CC(=O)N3)nnn1C)c1ccccc1Cl [Compound 14, (R)-1-(2-chlorophenyl)ethyl(1-methyl-4-(2-oxoindolin-5-yl)-1H-1,2,3-triazol-5-yl)carbamate] |
| 565 | C[C@@H](OC(=O)Nc1c(-c2ccc3[nH]c(=O)ccc3c2)nnn1C)c1ccccc1Cl [Compound 15, (R)-1-(2-chlorophenyl)ethyl(1-methyl-4-(2-oxo-1,2-dihydroquinolin-6-yl)-1H-1,2,3-triazol-5-yl)carbamate] |
| 525 | C[C@@H](OC(=O)Nc1c(-c2ccc3c(c2)COC(=O)N3)nnn1C)c1cccnc1Cl [Compound 16, (R)-1-(2-chloropyridin-3-yl)ethyl (1-methyl-4-(2-oxo-1,4-dihydro-2H-benzo[d][1,3]-oxazin-6-yl)-1H-1,2,3-triazol-5-yl)-carbamate] |
| 390 | C[C@@H](OC(=O)Nc1c(-c2ccc3c(c2)CCC(=O)N3)nnn1C)c1cccnc1Cl [Compound 17, (R)-1-(2-chloropyridin-3-yl)ethyl (1-methyl-4-(2-oxo-1,2,3,4-tetrahydroquinolin-6-yl)-1H-1,2,3-triazol-5-yl)-carbamate] |
| 265 | C[C@@H](OC(=O)Nc1c(-c2ccc3c(c2)OCC(=O)N3)nnn1C)c1cccnc1Cl [Compound 18, (R)-1-(2-chloropyridin-3-yl)ethyl (1-methyl-4-(3-oxo-3,4-dihydro-2H-benzo[b][1,4]-oxazin-7-yl)-1H-1,2,3-triazol-5-yl)-carbamate] |
| 265 | C[C@@H](OC(=O)Nc1c(-c2ccc3c(c2)N(C)CC(=O)N3)nnn1C)c1ccccc1Cl [Compound 19, (R)-1-(2-chlorophenyl)ethyl (1-methyl-4-(4-methyl-2-oxo-1,2,3,4-tetrahydroquinoxalin-6-yl)-1H-1,2,3-triazol-5-yl)carbamate] |
| 118 | C[C@@H](OC(=O)Nc1c(-c2ccc3c(c2)CCC(=O)N3)nnn1C)c1cc(F)cnc1Cl [Compound 20, (R)-1-(2-chloro-5-fluoropyridin-3-yl)ethyl (1-methyl-4-(2-oxo-1,2,3,4-tetrahydroquinolin-6-yl)-1H-1,2,3-triazol-5-yl)carbamate] |
| 2280 | C[C@@H](OC(=O)Nc1c(-c2ccc3c(n2)OC(C)(C)C(=O)N3)nnn1C)c1cccnc1Cl [Compound 21, (R)-1-(2-chloropyridin-3-yl)ethyl (4-(3,3-dimethyl-2-oxo-2,3-dihydro-1H-pyrido[2,3-b][1,4]oxazin-6-yl)-1-methyl-1H-1,2,3-triazol-5-yl)carbamate] |
| 86 | CC1Oc2nc(-c3nnn(C)c3NC(=O)O[C@H](C)c3cccnc3Cl)ccc2NC1=O (stereo partly drawn) [Compound 22, (R)-1-(2-chloropyridin-3-yl)ethyl (1-methyl-4-(3-methyl-2-oxo-2,3-dihydro-1H-pyrido[2,3-b][1,4]oxazin-6-yl)-1H-1,2,3-triazol-5-yl)carbamate] |
| 123 | C[C@@H](OC(=O)Nc1c(-c2ccc3c(n2)OCC(=O)N3)nnn1C)c1cccnc1Cl [Compound 24, (R)-1-(2-chloropyridin-3-yl)ethyl (1-methyl-4-(2-oxo-2,3-dihydro-1H-pyrido[2,3-b][1,4]oxazin-6-yl)-1H-1,2,3-triazol-5-yl)carbamate] |
| 140 | C[C@@H](OC(=O)Nc1c(-c2ccc3c(n2)COC(=O)N3)nnn1C)c1cccnc1Cl [Compound 25, [(1R)-1-(2-chloro-3-pyridyl)ethyl] N-[3-methyl-5-(2-oxo-1,4-dihydropyrido[3,2-d][1,3]oxazin-6-yl)triazol-4-yl]carbamate] |
| 3780 | CCC1Oc2nc(-c3nnn(C)c3NC(=O)O[C@H](C)c3cccnc3Cl)ccc2NC1=O (stereo partly drawn) [Compound 26, (R)-1-(2-chloropyridin-3-yl)ethyl (4-(3-ethyl-2-oxo-2,3-dihydro-1H-pyrido[2,3-b][1,4]oxazin-6-yl)-1-methyl-1H-1,2,3-triazol-5-yl)carbamate] |
| 135 | C[C@@H](OC(=O)Nc1c(-c2ccc3c(n2)OC(c2ccccc2)C(=O)N3)nnn1C)c1cccnc1Cl (stereo partly drawn) [Compound 27, (R)-1-(2-chloropyridin-3-yl)ethyl (1-methyl-4-(2-oxo-3-phenyl-2,3-dihydro-1H-pyrido[2,3-b][1,4]oxazin-6-yl)-1H-1,2,3-triazol-5-yl)carbamate] |
| 660 | C[C@@H](OC(=O)Nc1c(-c2nc3c(cc2F)NC(=O)CO3)nnn1C)c1cccnc1Cl [Compound 28, (R)-1-(2-chloropyridin-3-yl)ethyl (4-(7-fluoro-2-oxo-2,3-dihydro-1H-pyrido[2,3-b][1,4]oxazin-6-yl)-1-methyl-1H-1,2,3-triazol-5-yl)carbamate] |
